System: C-reactive protein
Assay: Randomized, double-blind, placebo controlled, forced dose-escalation, multicenter study; hs-CRP blood levels
Assay type: in vivo, human
From the text: The study was a randomized, double-blind, placebo controlled, forced dose-escalation, multicenter study.
Inclusion Criteria • Patients were at least 18 years of age and ≤80 years of age at the time of informed consent; • Women of childbearing potential must have a negative urine pregnancy test at screening and visit 4.
Exclusion Criteria • Patients who were pregnant, planning to become pregnant during the study, or nursing • Patients who had with clinically significant electrocardiographic abnormalities at visit 1 or visit 4; • Patients who had body mass index>45 kg/m2 at visit 1; • Patients who had weight change of >5% of initial body weight between visits 1 and 4 (randomization); • Patients who had poorly controlled diabetes defined as a hemoglobin A1c>9.5% prior to visit 4 (randomization); • Patients who had evidence of hepatic disease (ALT or AST greater than 2.0 ULN, bilirubin greater than 1.5 ULN, or cirrhosis) at visit 1; • Patients who had renal dysfunction defined as glomerular filtration rate (GFR)<60 mL/min/1.73 m2 at visit 1; • Patients who had hypothyroidism that was not treated or not stable for at least 6 months prior to study entry; • Patients who had poorly controlled hypertension defined as a mean systolic blood pressure above 160 mm Hg and/or diastolic blood pressure above 100 mmHg at visit 1.
Following signature of informed consent, 164 patients received 1000 mg placebo three times daily with meals in a single-blind manner for a dietary-controlled baseline period of 6 to 8 weeks. From the sample of eligible subjects who completed the 6 to 8 week dietary-controlled baseline period, 71 subjects (22 received placebo and 49 received 1-MNA chloride) meeting all inclusion and no exclusion criteria were randomized in a double-blind manner ([…]) to the treatment arm. The treatment periods were: weeks 1 and 2 two 500 mg tablets administered three times daily with meals (total daily dose 3000 mg); weeks 3 to 14 two 1000 mg tablets administered three times daily with meals (total daily dose 6000 mg). Down titration to 3000 mg daily was allowed in the event that a subject could not tolerate the 6000 mg daily treatment for the stipulated period. Under this scenario, the down-titrated subject remained on the tolerated dose for the duration of the trial. hs-CRP blood levels were evaluated during the baseline period, upon randomization and throughout the active treatment period. All blood samples were collected following a 12-hour fast. Throughout the study, the subjects were required to adhere to a heart-healthy diet and abstain from/minimize ethyl alcohol intake. Safety and tolerability were assessed throughout the trial through the evaluation of physical exams, electrocardiograms, routine hematology ad blood chemistry testing, vital signs and adverse events.
In the analysis, adjusted geometric mean percent change was obtained by exponentiating the adjusted mean from the ANCOVA model, then subtracting 1 and multiplying by 100. Bounds of the 95% confidence intervals were obtained similarly. Based on the ANCOVA model of the change in log-transformed CRP including treatment group and log-transformed baseline value, the change in CRP level in blood in this study was approximately −17% relative to placebo.

[1] = end of study, oral 3000 mg daily weeks 1-2, 6000 mg daily weeks 3 to 14, n 45

C[n+]1cccc(C(N)=O)c1 [1-MNA chloride, 1-methylnicotinamide]
Lowering of blood or serum CRP level from baseline (baseline to end of study, 3000 then 6000 mg daily, 14 weeks): about 16%
Adjusted geometric mean percent change from baseline in C-reactive protein (baseline to end of study, ANCOVA on log-transformed CRP, 3000 then 6000 mg daily, 14 weeks): −15.66%
C-reactive protein, Baseline, Geometric mean (baseline, before double-blind treatment, n 49): 2.9 mg/L
C-reactive protein, Baseline, Mean ± SD (baseline, before double-blind treatment, patients with serum triglycerides 200-500 mg/dL, n 49): 4.0 ± 5.4 mg/L
C-reactive protein, End of study, Geometric mean [1]: 2.4 mg/L
C-reactive protein, End of study, Mean ± SD [1]: 3.3 ± 3.2 mg/L
C-reactive protein, Change from baseline to end of study, Mean ± SD (oral 3000 mg daily weeks 1-2, 6000 mg daily weeks 3 to 14, n 45): -0.8 ± 4.7 mg/L
